Laboratory results taken from patent US20240400555A1 (Initial Therapeutics, Inc., priority 2023, published 2024).

System: MV-4-11 cells
Experiment: Cell Viability Assay in MV-4-11 Cells
Type: cell-based
Conditions: Homo sapiens, MV4-11, 72 h, MV-4-11 cells, 72 h, Cell-Titer Glo; read-out: IC50
In short: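 Luminescent ATP read-out (CellTiter-Glo) after 72 h compound treatment of MV-4-11 leukaemia cells (7,000 per well, IMDM plus 10% FBS). Values expressed relative to DMSO control and derived by four-parameter non-linear regression.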

Structure (SMILES) | IC50
Cc1cccc2ccnc(N(C(=O)c3ccc(Nc4nccc(N5CCCOCC5)n4)cc3F)[C@@H]3CCCNC3)c12 [Example 944, (R)-4-(4-(1,4-oxazepan-4-yl)pyrimidin-2-ylamino)-2-fluoro-N-(8-methylisoquinolin-1-yl)-N-(piperidin-3-yl)benzamide] | 46 nM
COC(=O)[C@@H]1COCCN1c1ccnc(Nc2ccc(C(=O)N(c3nccc4cccc(C)c34)[C@@H]3CCCNC3)c(F)c2)n1 [Example 945, methyl(S)-4-(2-((3-fluoro-4-((8-methylisoquinolin-1-yl)((R)-piperidin-3-yl)carbamoyl)phenyl)amino)pyrimidin-4-yl)morpholine-3-carboxylate] | 47 nM
Cc1cccc2ccnc(N(C(=O)c3ccc(Nc4nccc(N[C@H]5CC[C@H](O)CC5)n4)cc3F)[C@@H]3CCCNC3)c12 [Example 946, 2-fluoro-4-(4-((1r,4r)-4-hydroxycyclohexylamino)pyrimidin-2-ylamino)-N-(8-methylisoquinolin-1-yl)-N—((R)-piperidin-3-yl)benzamide] | 130 nM
Cc1cccc2ccnc(N(C(=O)c3ccc(Nc4nccc(N5CCC(=O)C5)n4)cc3F)[C@@H]3CCCNC3)c12 [Example 947, (R)-2-fluoro-N-(8-methylisoquinolin-1-yl)-4-((4-(3-oxopyrrolidin-1-yl)pyrimidin-2-yl)amino)-N-(piperidin-3-yl)benzamide] | 35 nM
Cc1cccc2ccnc(N(C(=O)c3ccc(Nc4nccc(N(C)C5CCCC5)n4)cc3F)[C@@H]3CCCNC3)c12 [Example 948, 4-({4-[cyclopentyl(methyl)amino]pyrimidin-2-yl}amino)-2-fluoro-N-(8-methylisoquinolin-1-yl)-N-[(3R)-piperidin-3-yl]benzamide] | 150 nM
Cc1cccc2ccnc(N(C(=O)c3ccc(Nc4nccc(N(C)CCC#N)n4)cc3F)[C@@H]3CCCNC3)c12 [Example 949, (R)-4-((4-((2-cyanoethyl)(methyl)amino)pyrimidin-2-yl)amino)-2-fluoro-N-(8-methylisoquinolin-1-yl)-N-(piperidin-3-yl)benzamide] | 250 nM
Cc1cccc2ccnc(N(C(=O)c3ccc(Nc4nccc(NCC#N)n4)cc3F)[C@@H]3CCCNC3)c12 [Example 950, (R)-4-((4-((cyanomethyl)amino)pyrimidin-2-yl)amino)-2-fluoro-N-(8-methylisoquinolin-1-yl)-N-(piperidin-3-yl)benzamide] | 51 nM
COc1ccnc(Nc2ccc(C(=O)N(c3nccc4cccc(C)c34)[C@@H]3CCCNC3)c(F)c2)n1 [Example 951, 2-fluoro-4-[(4-methoxypyrimidin-2-yl)amino]-N-(8-methylisoquinolin-1-yl)-N-[(3R)-piperidin-3-yl]benzamide] | 100 nM
CCC(C)N(C)c1ccnc(Nc2ccc(C(=O)N(c3nccc4cccc(C)c34)[C@@H]3CCCNC3)c(F)c2)n1 (stereo partly drawn) [Example 952, 4-((4-(sec-butyl(methyl)amino)pyrimidin-2-yl)amino)-2-fluoro-N-(8-methylisoquinolin-1-yl)-N—((R)-piperidin-3-yl)benzamide] | 130 nM
Cc1cccc2ccnc(N(C(=O)c3ccc(Nc4nccnn4)cc3F)[C@@H]3CCCNC3)c12 [Example 953, (R)-4-(1,2,4-triazin-3-ylamino)-2-fluoro-N-(8-methylisoquinolin-1-yl)-N-(piperidin-3-yl)benzamide] | 100 nM
Cc1cccc2ccnc(N(C(=O)c3ccc(Nc4nccc(NC5CCOCC5)n4)cc3F)[C@@H]3CCCNC3)c12 [Example 954, (R)-2-fluoro-N-(8-methylisoquinolin-1-yl)-N-(piperidin-3-yl)-4-((4-((tetrahydro-2H-pyran-4-yl)amino)pyrimidin-2-yl)amino)benzamide] | 31 nM
Cc1cccc2ccnc(N(C(=O)c3ccc(Nc4nccc(N5CCOCC5C#N)n4)cc3F)[C@@H]3CCCNC3)c12 (stereo partly drawn) [Example 955, 4-((4-(3-cyanomorpholino)pyrimidin-2-yl)amino)-2-fluoro-N-(8-methylisoquinolin-1-yl)-N—((R)-piperidin-3-yl)benzamide] | 26 nM
